The text below walks through data of patent publication US20240109853A1 (Shanghai Yao Yuan Biotechnology Co., Ltd., priority 2020, published 2024).

For one test, the target named is ALPK1 (Homo sapiens (Human), UniProt Q96QP1). The test can be described thus: ALPK1 in vitro kinase assay (HTRF of TIFA phosphorylation). It counts as biochemical. For orientation: Time-resolved FRET reads energy transfer from a long-lived donor to a nearby acceptor.
The test system of test [1] is ALPK1-dependent NFκB reporter gene activation in HEK293 cells stably expressing an NF-kB reporter (G9 cells). The test can be described thus: NFκB gene reporter alkaline phosphatase assay. The conditions noted are these: Homo sapiens, HEK293; read-out: NFkB assay IC50. It counts as cell-based. An outline of the steps: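 HEK293 G9 cells carrying an NF-κB-driven alkaline phosphatase reporter, pretreated 30 min with serially diluted compound, then stimulated with D-glycero-D-manno-6-fluoro-heptose-1β-S-ADP. Reporter activity read with chromogenic pNPP substrate; IC50 from four-parameter logistic fit.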

Sequence of ALPK1 (Q96QP1 whole entry): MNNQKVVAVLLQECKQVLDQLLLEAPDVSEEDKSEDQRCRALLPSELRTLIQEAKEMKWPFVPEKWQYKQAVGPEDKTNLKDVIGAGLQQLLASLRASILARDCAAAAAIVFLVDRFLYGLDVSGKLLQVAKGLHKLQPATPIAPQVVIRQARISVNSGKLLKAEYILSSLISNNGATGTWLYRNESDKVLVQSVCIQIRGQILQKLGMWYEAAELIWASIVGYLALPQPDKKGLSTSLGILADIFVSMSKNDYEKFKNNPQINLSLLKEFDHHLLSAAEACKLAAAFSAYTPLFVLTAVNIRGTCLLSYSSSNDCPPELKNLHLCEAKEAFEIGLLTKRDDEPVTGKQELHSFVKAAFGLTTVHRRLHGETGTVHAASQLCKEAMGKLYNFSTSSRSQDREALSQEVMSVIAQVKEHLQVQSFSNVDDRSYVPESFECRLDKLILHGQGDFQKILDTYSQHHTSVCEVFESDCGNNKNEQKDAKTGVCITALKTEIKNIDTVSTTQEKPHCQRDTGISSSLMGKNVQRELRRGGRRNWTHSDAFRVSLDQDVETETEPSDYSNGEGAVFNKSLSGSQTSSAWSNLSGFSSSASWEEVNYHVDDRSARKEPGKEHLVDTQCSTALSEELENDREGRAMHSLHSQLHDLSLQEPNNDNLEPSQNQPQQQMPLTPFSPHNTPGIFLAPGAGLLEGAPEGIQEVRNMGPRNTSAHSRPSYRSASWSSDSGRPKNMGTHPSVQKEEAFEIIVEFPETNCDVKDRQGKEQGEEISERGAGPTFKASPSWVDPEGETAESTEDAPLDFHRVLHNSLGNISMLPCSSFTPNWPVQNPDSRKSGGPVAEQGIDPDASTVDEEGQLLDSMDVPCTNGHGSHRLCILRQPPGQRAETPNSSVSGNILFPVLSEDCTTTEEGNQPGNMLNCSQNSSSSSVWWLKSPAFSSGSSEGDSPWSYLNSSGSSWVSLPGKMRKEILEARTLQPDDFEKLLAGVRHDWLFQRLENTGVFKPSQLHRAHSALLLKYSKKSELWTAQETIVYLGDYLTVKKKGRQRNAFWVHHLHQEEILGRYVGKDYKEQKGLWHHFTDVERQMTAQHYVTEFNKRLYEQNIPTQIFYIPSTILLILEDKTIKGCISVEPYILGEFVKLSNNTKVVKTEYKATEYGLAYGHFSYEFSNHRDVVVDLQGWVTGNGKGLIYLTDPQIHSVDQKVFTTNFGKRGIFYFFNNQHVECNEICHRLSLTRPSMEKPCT

What is called IC50 is the concentration needed to halve the response being measured. Take `C#CC(C)(c1ccc(Br)cc1)c1csc(NC(N)=O)n1` (stereo in doubt) [Example A163, (S)-1-(4-(2-(4-bromophenyl)but-3-yn-2-yl)thiazol-2-yl)urea]: the IC50 worked out at 4 nM at ALPK1 and 350 nM in test [1].
With `COc1ccc(C(C)(C)c2csc(NC(=O)NCCCO)n2)cc1` [Example A133, 1-(3-hydroxypropyl)-3-(4-(2-(4-methoxyphenyl)propan-2-yl)thiazol-2-yl)urea], the IC50 at ALPK1 amounted to 57 nM; in test [1], 600 nM.
The corresponding values for `CC(C)(c1ccc(Br)cc1)c1csc(NC(=O)NCc2ccc(N3CCNCC3)nc2)n1` [Example A092, 1-(4-(2-(4-bromophenyl)propan-2-yl)thiazol-2-yl)-3-((6-(piperazin-1-yl)pyridin-3-yl)methyl)urea] are 20 nM and 570 nM.
Turning to `C#CC(C)(c1ccc(Cl)cc1)c1csc(NC(=O)NCCO)n1` (stereo not shown) [Example A174, 1-(4-(2-(4-chlorophenyl)but-3-yn-2-yl)thiazol-2-yl)-3-(2-hydroxyethyl)urea], the IC50 against ALPK1 came to 34 nM; in test [1], 310 nM.
With `COc1ccc(C(C)(C)c2csc(NC(=O)NCCCCN3CCC(N)C3)n2)cc1` (stereo not shown) [Example A077, 1-(4-(3-aminopyrrolidin-1-yl)butyl)-3-(4-(2-(4-methoxyphenyl)propan-2-yl)thiazol-2-yl)urea], the IC50 worked out at 180 nM at ALPK1 and 2970 nM in test [1].
In the case of `CC(C)(c1ccc(Br)cc1)c1csc(NC(=O)NCCCCN)n1` [Example A028, 1-(4-aminobutyl)-3-(4-(2-(4-bromophenyl)propan-2-yl)thiazol-2-yl)urea], the concentration for half-maximal inhibition (IC50) against ALPK1 was 53 nM; in test [1], 2560 nM.
Turning to `COc1ccc(C(C)(C)c2csc(NC(=O)NCc3ccc(N4CCC(O)CC4)cc3)n2)cc1` [Example A139, 1-(4-(4-hydroxypiperidin-1-yl)benzyl)-3-(4-(2-(4-methoxyphenyl)propan-2-yl)thiazol-2-yl)urea], the IC50 amounted to 261 nM against ALPK1 and 1350 nM in test [1].
Turning to `C#CC(C)(c1ccc(Cl)cc1)c1csc(NC(=O)NCCC#N)n1` (stereo not shown) [Example A024, 1-(4-(2-(4-chlorophenyl)but-3-yn-2-yl)thiazol-2-yl)-3-(2-cyanoethyl)urea], the values for the IC50 (against ALPK1; in test [1]) were 13 nM and 1250 nM, respectively.
The corresponding values for `COc1ccc(C(C)(C)c2csc(NC(=O)NCc3cnc(N4CCNC(=O)C4)c(F)c3)n2)cc1` [Example A121, 1-((5-fluoro-6-(3-oxopiperaizn-1-yl)pyridin-3-yl)methyl)-3-(4-(2-(4-methoxyphenyl)propan-2-yl)thiazol-2-yl)urea] are 209 nM and 2020 nM.
The corresponding values for `CC(C)(c1ccc(Br)cc1)c1csc(NC(=O)NCc2ccc(N3CCC(N)C3)cc2)n1` (stereo not shown) [Example A032, 1-(4-(3-aminopyrrolidin-1-yl)benzyl)-3-(4-(2-(4-bromophenyl)propan-2-yl)thiazol-2-yl)urea] are 291 nM and 580 nM.
The corresponding values for `CC(C)(c1ccc(Br)cc1)c1csc(NC(=O)NCc2ccc(NCCO)cc2)n1` [Example A108, 1-(4-(2-(4-bromophenyl)propan-2-yl)thiazol-2-yl)-3-(4-((2-hydroxyethyl)amino)ben-zyl)urea] are 244 nM and 820 nM.
On to `CCNC(=O)Nc1nc(C(C)(C)c2ccc(Br)cc2)cs1` [Example A241, 1-(4-(2-(4-bromophenyl)propan-2-yl)thiazol-2-yl)-3-ethylurea], for which the IC50 at ALPK1 amounted to 98 nM; in test [1], 3410 nM.
On to `COc1ccc(C(C)(C)c2csc(NC(=O)NCc3ccc(N4CCC(N)C4)cn3)n2)cc1` (stereo not shown) [Example A200, 1-((5-(3-aminopyrrolidin-1-yl)pyridin-2-yl)methyl)-3-(4-(2-(4-methoxyphenyl)propan-2-yl)thiazol-2-yl)urea], for which the values for the IC50 (at ALPK1; in test [1]) were 43 nM and 520 nM, respectively.
Taken in the same sequence, the figures for `COc1ccc(C(C)(C)c2csc(NC(=O)NCCOCCN3CCC(N)C3)n2)cc1` (stereo not shown) [Example A072, 1-(2-(2-(3-aminopyrrolidin-1-yl)ethoxy)ethyl)-3-(4-(2-(4-methoxyphenyl)propan-2-yl)thiazol-2-yl)urea] were 143 nM and 1450 nM.
The corresponding values for `COc1ccc(C(C)(C)c2csc(NC(=O)NCc3cc(F)c(N4CCC(N)C4)c(F)c3)n2)cc1` (stereo not shown) [Example A201, 1-(4-(3-aminopyrrolidin-1-yl)-3,5-difluorobenzyl)-3-(4-(2-(4-methoxyphenyl)propan-2-yl)thiazol-2-yl)urea] are 25 nM and 530 nM.
Taken in the same sequence, the figures for `CC(C)(c1ccc(Br)cc1)c1csc(NC(=O)NCCCO)n1` [Example A126, 1-(4-(2-(4-bromophenyl)propan-2-yl)thiazol-2-yl)-3-(3-hydroxypropyl)urea] were 88 nM and 2960 nM.
As to `COc1ccc(C(C)(C)c2csc(NC(=O)NCc3ccc(C(=O)NC4CCNCC4)cc3)n2)cc1` [Example A042, 4-((3-(4-(2-(4-methoxyphenyl)propan-2-yl)thiazol-2-yl)ureido)methyl)-N-(piperidin-4-yl)benzamide], the IC50 against ALPK1 amounted to 15 nM; in test [1], 1000 nM.
Taken in the same sequence, the figures for `C#CC(C)(c1ccc(Br)cc1)c1csc(NC(=O)N2CC(c3ccc(N4CCNCC4)cc3)C2)n1` (stereo not shown) [Example A237, N-(4-(2-(4-bromophenyl)but-3-yn-2-yl)thiazol-2-yl)-3-(4-(piperazin-1-yl)phenyl)azetidine-1-carboxamide] were 7 nM and 610 nM.
Taken in the same sequence, the figures for `C#CC(C)(c1ccc(Br)cc1)c1csc(NC(=O)N2CC(CO)C2)n1` (stereo not shown) [Example A165, N-(4-(2-(4-bromophenyl)but-3-yn-2-yl)thiazol-2-yl)-3-(hydroxymethyl)azetidine-1-carboxamide] were 138 nM and 730 nM.
The corresponding values for `C#C[C@@](C)(c1ccc(Cl)cc1)c1csc(NC(=O)NC2(CO)CC2)n1` [Example A295, 1-(4-(2-(4-chlorophenyl)but-3-yn-2-yl)thiazol-2-yl)-3-(1-(hydroxymethyl)cyclopro-pyl)urea] are 522 nM and 1790 nM.
Consider `C#C[C@@](C)(c1ccc(Br)cc1)c1csc(NC(=O)NCCO)n1` [Example A160, (S)-1-(4-(2-(4-bromophenyl)but-3-yn-2-yl)thiazol-2-yl)-3-(2-hydroxyethyl)urea], for which the results for the IC50 (against ALPK1; in test [1]) were 10 nM and 170 nM, respectively.
Taken in the same sequence, the figures for `C#CC(C)(c1ccc(Cl)cc1)c1nc(NC(=O)NCCO)sc1F` (stereo not shown) [Example A279, 1-(4-(2-(4-chlorophenyl)but-3-yn-2-yl)-5-fluorothiazol-2-yl)-3-(2-hydroxyethyl)urea] were 222 nM and 4230 nM.
Regarding `CC(C)(c1ccc(Br)cc1)c1csc(NC(=O)NCCCN2CCNCC2)n1` [Example A102, 1-(4-(2-(4-bromophenyl)propan-2-yl)thiazol-2-yl)-3-(3-(piperazin-1-yl)propyl)urea], the values for the 50% inhibitory concentration (IC50) (on ALPK1; in test [1]) were 90 nM and 710 nM, respectively.
As for `O=C(NCc1ccc(N2CCNCC2)cc1)Nc1nc(C2(c3ccc(Br)cc3)CCCC2)cs1` [Example A045, 1-(4-(1-(4-bromophenyl)cyclopentyl)thiazol-2-yl)-3-(4-(piperazin-1-yl)benzyl)urea], the results for the IC50 (against ALPK1; in test [1]) were 24 nM and 1070 nM, respectively.
The corresponding values for `COc1ccc(C(C)(C)c2csc(NC(=O)NCCCN3CCN(C)CC3)n2)cc1` [Example A142, 1-(4-(2-(4-methoxyphenyl)propan-2-yl)thiazol-2-yl)-3-(3-(4-methylpiperazin-1-yl)propyl)urea] are 180 nM and 1330 nM.
Taken in the same sequence, the figures for `C#C[C@@](C)(c1ccc(Cl)cc1)c1csc(NC(=O)NC[C@H](O)CO)n1` [Example A304, 1-(4-(2-(4-chlorophenyl)but-3-yn-2-yl)thiazol-2-yl)-3-((S)-2,3-dihydroxypropyl)urea] were 90 nM and 520 nM.
Taken in the same sequence, the figures for `C#C[C@@](C)(c1ccc(Cl)cc1)c1csc(NC(=O)NC(CO)CO)n1` (stereo in doubt) [Example A298, 1-(4-(2-(4-chlorophenyl)but-3-yn-2-yl)thiazol-2-yl)-3-(1,3-dihydroxypropan-2-yl)urea] were 246 nM and 1150 nM.
On to `COCCOc1cc(CNC(=O)Nc2nc(C(C)(C)c3ccc(Br)cc3)cs2)ccc1N1CCNCC1` [Example A055, 1-(4-(2-(4-bromophenyl)propan-2-yl)thiazol-2-yl)-3-(3-(2-methoxyethoxy)-4-(piperazin-1-yl)benzyl)urea], for which the IC50 amounted to 182 nM against ALPK1 and 4700 nM in test [1].
As for `Cc1cc(N2CCNCC2)ccc1CNC(=O)Nc1nc(C(C)(C)c2ccc(Br)cc2)cs1` [Example A051, 1-(4-(2-(4-bromophenyl)propan-2-yl)thiazol-2-yl)-3-(2-methyl-4-(piperazin-1-yl)benzyl)urea], the IC50 on ALPK1 came out at 125 nM; in test [1], 290 nM.
In the case of `C#CC(C)(c1ccc(Br)cc1)c1csc(NC(=O)N2CC(O)C2)n1` (stereo not shown) [Example A153, N-(4-(2-(4-bromophenyl)but-3-yn-2-yl)thiazol-2-yl)-3-hydroxyazetidine-1-carboxamide], the IC50 at ALPK1 stood at 76 nM; in test [1], 370 nM.
Taken in the same sequence, the figures for `C#C[C@@](C)(c1ccc(OC)cc1)c1csc(NC(=O)N2CC(CO)C2)n1` [Example A256, (S)-3-(hydroxymethyl)-N-(4-(2-(4-methoxyphenyl)but-3-yn-2-yl)thiazol-2-yl)azetidine-1-carboxamide] were 273 nM and 14300 nM.
The corresponding values for `COc1ccc(C(C)(C)c2csc(NC(=O)NC3CCCC(O)C3)n2)cc1` (stereo not shown) [Example A123, 1-(3-hydroxycyclohexyl)-3-(4-(2-(4-methoxyphenyl)propan-2-yl)thiazol-2-yl)urea] are 354 nM and 2400 nM.
